In patent US20260207563A1, “UREA COMPOUNDS AS ACTIVATORS OF POTASSIUM CHANNELS KV7.2/7.3 USEFUL IN THE TREATMENT OF CNS AND PNS DISORDERS” (ANGELINI PHARMA S.P.A., priority 2022, published 2026):
pEC50: −log10 of the molar value.

Legend:
Format in all cases: cell-based
[1] = target: T1, homomeric KV7.4 channel (KCNQ4) (Homo sapiens, UniProt P56696); test: Automated patch-clamp (Qube) counter-screening assay against KV7.4 channel; settings: CHO-K1 cells expressing KV7.4; class by maximal shift in the Vhalf at 30 μM
T1 construct: host or cells: CHO-K1
How it was run: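 EC50 and maximal shift in half-activation voltage come from 4-parameter logistic fits of mean Vhalf shifts. The series had ten 1-in-3 concentrations, highest 30 μM, each tested in quadruplicate. Recordings used automated Qube patch clamp on a stable CHO-K1 line expressing KCNQ4, and selectivity was judged from the 30 μM Vhalf shift.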

[2] = target: T2, heteromeric KV7.3/KV7.5 channel (KCNQ3, KCNQ5) (Homo sapiens, UniProt O43525+Q9NR82); test: Automated patch-clamp counter-screening against KV7.3/KV7.5 channel; settings: HEK293 cells expressing Kv7.3/KV7.5; class by maximal shift in the Vhalf at 30 μM
T2 construct: host or cells: HEK293
How it was run: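 Potency came from a 4-parameter logistic fit of mean voltage-of-half-activation shifts, yielding EC50 and maximal shift; selectivity was judged on the shift at 30 μM. Compounds were applied at ten 3-fold dilutions from 30 μM in quadruplicate to HEK293 cells stably carrying Kv7.3 with tet-inducible Kv7.5.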

[3] = target: T3, heteromeric KV7.2/KV7.3 channels (KCNQ2, KCNQ3) (Homo sapiens, UniProt O43525+O43526); test: Automated patch-clamp (Sophion Qube 384) potency assay against KV7.2/KV7.3 channels; settings: CHO-K1/Kv7.2/Kv7.3 cells; for pEC50: EC50 from concentration-response of shift in Vhalf, 10 concentrations up to 30 μM, read-out: Kv7.2/7.3 EC50; for Kv7.2/7.3 ΔV1/2: maximal shift in the Vhalf from the top of the curve
T3 construct: expressed in transfected cells; host or cells: CHO-K1
How it was run: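 Activator potency: EC50 from 4-parameter logistic fit of mean Vhalf shift across ten 1-in-3 dilutions starting at 30 μM (n=4), with DMSO (typically 0.3%) control. Currents recorded by leak-subtracted whole-cell clamp of stable CHO-K1 KV7.2/KV7.3 cells, held at −80 mV, stepped −100 to +20 mV then 0 mV tails.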

Row | pEC50 [3] | Kv7.2/7.3 ΔV1/2 [3] | Compound | Kv7.4 selectivity criteria [1] | Kv7.3/7.5 selectivity criteria [2]
1 | 5.35 | 22.29 mV | O=C(NCCC1(C(F)(F)F)CC1)NCc1ccnc(OCc2ncco2)c1 [Compound 13, 1-((2-(Oxazol-2-ylmethoxy)pyridin-4-yl)methyl)-3-(2-(1-(trifluoromethyl)cyclopropyl)ethyl)urea] | A (Selective compounds showed Kv7.4 and/or Kv7.3/7.5 ΔV1/2 equal to or lower than 15 mV (letter A in table 3)) | A (Selective compounds showed Kv7.4 and/or Kv7.3/7.5 ΔV1/2 equal to or lower than 15 mV (letter A in table 3))
2 | 5.66 | 18.85 mV | O=C(NCc1ccnc(OCC(F)(F)F)c1)N[C@H]1CCc2ccc(F)cc21 [Compound 89] | B (Non-selective compounds showed Kv7.4 and/or Kv7.3/7.5 ΔV1/2 higher than 15 mV (letter B in table 3)) | A (Selective compounds showed Kv7.4 and/or Kv7.3/7.5 ΔV1/2 equal to or lower than 15 mV (letter A in table 3))
3 | 5.64 | 26.87 mV | C[C@H](NC(=O)NCCC1(C(F)(F)F)CC1)c1ccnc(C(F)(F)F)c1 [Compound 97] | B (Non-selective compounds showed Kv7.4 and/or Kv7.3/7.5 ΔV1/2 higher than 15 mV (letter B in table 3)) | B (Non-selective compounds showed Kv7.4 and/or Kv7.3/7.5 ΔV1/2 higher than 15 mV (letter B in table 3))
4 | 6.63 | 20.86 mV | O=C(NCCC1(C(F)(F)F)CC1)NCc1ccnc(OCC(F)(F)F)c1F [Compound 90] | A (Selective compounds showed Kv7.4 and/or Kv7.3/7.5 ΔV1/2 equal to or lower than 15 mV (letter A in table 3)) | A (Selective compounds showed Kv7.4 and/or Kv7.3/7.5 ΔV1/2 equal to or lower than 15 mV (letter A in table 3))
5 | 6.40 | 15.68 mV | COc1ccc2c(c1)[C@@H](NC(=O)NCc1ccnc(OCC(F)(F)F)c1)CC2 [Compound 128] | A (Selective compounds showed Kv7.4 and/or Kv7.3/7.5 ΔV1/2 equal to or lower than 15 mV (letter A in table 3)) | A (Selective compounds showed Kv7.4 and/or Kv7.3/7.5 ΔV1/2 equal to or lower than 15 mV (letter A in table 3))
6 | 5.80 | 47.43 mV | O=C(NCc1ccnc(OC(F)F)c1)N[C@@H]1CCc2ccc(F)cc21 [Compound 153] | B (Non-selective compounds showed Kv7.4 and/or Kv7.3/7.5 ΔV1/2 higher than 15 mV (letter B in table 3)) | B (Non-selective compounds showed Kv7.4 and/or Kv7.3/7.5 ΔV1/2 higher than 15 mV (letter B in table 3))
7 | 5.64 | 21.55 mV | O=C(NCCC1(C(F)(F)F)CC1)N1CCCC1c1ccnc(OCC(F)(F)F)c1 (stereo not shown) [Compound 95] | A (Selective compounds showed Kv7.4 and/or Kv7.3/7.5 ΔV1/2 equal to or lower than 15 mV (letter A in table 3)) | A (Selective compounds showed Kv7.4 and/or Kv7.3/7.5 ΔV1/2 equal to or lower than 15 mV (letter A in table 3))
8 | 4.93 | 19.21 mV | CC(C)(C)[C@@H](O)CNC(=O)NCc1ccnc(OCCC(F)(F)F)c1 [Compound 78, (R)-1-(2-Hydroxy-3,3-dimethylbutyl)-3-((2-(3,3,3-trifluoropropoxy)pyridin-4-yl)methyl)urea] | A (Selective compounds showed Kv7.4 and/or Kv7.3/7.5 ΔV1/2 equal to or lower than 15 mV (letter A in table 3)) | A (Selective compounds showed Kv7.4 and/or Kv7.3/7.5 ΔV1/2 equal to or lower than 15 mV (letter A in table 3))
9 | 5.07 | 52.09 mV | COc1ccc2c(c1)OC[C@H]2NC(=O)NCc1ccnc(OCC(F)(F)F)c1 [Compound 166] | A (Selective compounds showed Kv7.4 and/or Kv7.3/7.5 ΔV1/2 equal to or lower than 15 mV (letter A in table 3)) | A (Selective compounds showed Kv7.4 and/or Kv7.3/7.5 ΔV1/2 equal to or lower than 15 mV (letter A in table 3))
10 | 5.18 | 25.66 mV | C[C@H](Oc1cc(CNC(=O)NCCC2(C(F)(F)F)CC2)ncn1)C(F)(F)F [Compound 96] | A (Selective compounds showed Kv7.4 and/or Kv7.3/7.5 ΔV1/2 equal to or lower than 15 mV (letter A in table 3)) | A (Selective compounds showed Kv7.4 and/or Kv7.3/7.5 ΔV1/2 equal to or lower than 15 mV (letter A in table 3))
11 | 5.41 | 28.15 mV | O=C(NCCC1(C(F)(F)F)CC1)NCc1ccc(OCC(F)(F)F)nc1 [Compound 80, 1-((6-(2,2,2-Trifluoroethoxy)pyridin-3-yl)methyl)-3-(2-(1-(trifluoromethyl)cyclopropyl)ethyl)urea] | B (Non-selective compounds showed Kv7.4 and/or Kv7.3/7.5 ΔV1/2 higher than 15 mV (letter B in table 3)) | A (Selective compounds showed Kv7.4 and/or Kv7.3/7.5 ΔV1/2 equal to or lower than 15 mV (letter A in table 3))
12 | 5.71 | 27.07 mV | O=C(NCCC1(C(F)(F)F)CC1)NCc1ccnc(OCC2(F)CC2)c1 [Compound 22, 1-((2-((1-Fluorocyclopropyl)methoxy)pyridin-4-yl)methyl)-3-(2-(1-(trifluoromethyl)cyclopropyl)ethyl)urea] | A (Selective compounds showed Kv7.4 and/or Kv7.3/7.5 ΔV1/2 equal to or lower than 15 mV (letter A in table 3)) | A (Selective compounds showed Kv7.4 and/or Kv7.3/7.5 ΔV1/2 equal to or lower than 15 mV (letter A in table 3))
13 | 6.56 | 16.57 mV | O=C(NCc1ccnc(OCC(F)(F)F)c1)N[C@H]1CCc2cc(F)c(F)cc21 [Compound 120] | B (Non-selective compounds showed Kv7.4 and/or Kv7.3/7.5 ΔV1/2 higher than 15 mV (letter B in table 3)) | A (Selective compounds showed Kv7.4 and/or Kv7.3/7.5 ΔV1/2 equal to or lower than 15 mV (letter A in table 3))
14 | 5.75 | 26.68 mV | O=C(NCCC1(C(F)(F)F)CC1)NCc1ccnc(OCCC(F)(F)F)c1 [Compound 74, 1-(2-(1-(Trifluoromethyl)cyclopropyl)ethyl)-3-((2-(3,3,3-trifluoropropoxy)pyridin-4-yl)methyl)urea] | A (Selective compounds showed Kv7.4 and/or Kv7.3/7.5 ΔV1/2 equal to or lower than 15 mV (letter A in table 3)) | A (Selective compounds showed Kv7.4 and/or Kv7.3/7.5 ΔV1/2 equal to or lower than 15 mV (letter A in table 3))
15 | 5.26 | 28.27 mV | O=C(NCCC1(C(F)(F)F)CC1)NCc1ccnc(OCCF)c1 [Compound 17, 1-((2-(2-Fluoroethoxy)pyridin-4-yl)methyl)-3-(2-(1-(trifluoromethyl)cyclopropyl)ethyl)urea] | A (Selective compounds showed Kv7.4 and/or Kv7.3/7.5 ΔV1/2 equal to or lower than 15 mV (letter A in table 3)) | A (Selective compounds showed Kv7.4 and/or Kv7.3/7.5 ΔV1/2 equal to or lower than 15 mV (letter A in table 3))
16 | 5.77 | 27.28 mV | CC(C)(C)[C@H](O)CNC(=O)NCc1ccnc(OCc2ccccc2)c1 [Compound 4, (S)-1-((2-(Benzyloxy)pyridin-4-yl)methyl)-3-(2-hydroxy-3,3-dimethylbutyl)urea] | A (Selective compounds showed Kv7.4 and/or Kv7.3/7.5 ΔV1/2 equal to or lower than 15 mV (letter A in table 3)) | B (Non-selective compounds showed Kv7.4 and/or Kv7.3/7.5 ΔV1/2 higher than 15 mV (letter B in table 3))
17 | 5.88 | 30.15 mV | O=C(NCc1ccnc(OCC(F)(F)F)c1)N[C@@H]1CCCOc2ccccc21 [Compound 150] | B (Non-selective compounds showed Kv7.4 and/or Kv7.3/7.5 ΔV1/2 higher than 15 mV (letter B in table 3)) | A (Selective compounds showed Kv7.4 and/or Kv7.3/7.5 ΔV1/2 equal to or lower than 15 mV (letter A in table 3))
18 | 5.58 | 38.71 mV | O=C(N[C@@H](CO)c1ccnc(OCC(F)(F)F)c1)N[C@@H]1CCc2ccc(F)cc21 [Compound 101] | B (Non-selective compounds showed Kv7.4 and/or Kv7.3/7.5 ΔV1/2 higher than 15 mV (letter B in table 3)) | B (Non-selective compounds showed Kv7.4 and/or Kv7.3/7.5 ΔV1/2 higher than 15 mV (letter B in table 3))
19 | 5.80 | 30.45 mV | O=C(NCc1ccnc(OCC(F)(F)F)c1)N[C@@H]1CCc2cc(Cl)ccc21 [Compound 127] | B (Non-selective compounds showed Kv7.4 and/or Kv7.3/7.5 ΔV1/2 higher than 15 mV (letter B in table 3)) | B (Non-selective compounds showed Kv7.4 and/or Kv7.3/7.5 ΔV1/2 higher than 15 mV (letter B in table 3))
